{"source": "patent US11091749B2", "about": "“Deimmunized lysostaphin and methods of use” (TRUSTEES OF DARTMOUTH COLLEGE, priority 2014, dated 2021)", "key": {"pooled splenocytes": {"tested_on": "pooled splenocytes", "assay": "Transgenic DR4 murine immunogenicity study (memory response, splenocyte proliferation)", "assay_type": "in vivo", "details": "wild-type LST primed mice, 100 μg rechallenge", "procedure": "Twelve female 6-8 week old DR4 transgenic mice (Abb Knockout/Transgenic HLA-DR4; B6.129S2-H2-Ab1tm1GruTg(HLA-DRA/H2-Ea,HLA-DRB1*0401/H2-Eb)1Kito; Taconic Farms, Germantown, N.Y.) were divided into four groups of three each and immunized with 50 μl subcutaneous injections of wild-type LST using one of the following four schemes: (i) initial immunization with 100 μg enzyme in CFA, followed by 100 μg boosts in incomplete Freund's adjuvant (IFA) on days 14 and 28; (ii) initial immunization with 20 μg enzyme in CFA, followed by 20 μg boosts in IFA on days 14 and 28; (iii) initial immunization with 100 μg enzyme in PBS buffer, followed by 100 μg boosts in PBS buffer on days 7, 14, 21 and 28; (iv) initial immunization with 20 μg enzyme in PBS buffer, followed by 20 μg boosts in PBS buffer on days 7, 14, 21 and 28. Serum IgG antibody titers against wild-type LST were measured on days 13, 20, 27, 34, and 62. […] Mice were housed without further manipulation until week 23 of the study, at which time serum IgG antibody titers were again measured and mice were divided into two experimental arms having equivalent average antibody titers. Note that during the week 9 to week 23 recovery period, two mice (the lowest titer 100 μg no adjuvant and one of the high titer 100 μg adjuvant) began suffering hair loss, weight loss, and reduced mobility and were sacrificed as per the IACUC approved protocol. […]"}, "S. aureus 6445": {"tested_on": "S. aureus 6445", "assay": "MIC assay", "assay_type": "cell-based, Staphylococcus aureus", "details": "biological duplicates"}, "MRSA strain USA400": {"tested_on": "MRSA strain USA400", "assay": "Efficacy of F13 in immunized mice, MRSA challenge", "assay_type": "in vivo, DR4 HLA transgenic mice", "details": "500 μg i.v. 1 h after 2×10^8 MRSA i.p.", "procedure": "The immunogenicity of the F13 variant was compared to wild-type LST in DR4 HLA transgenic mice, i.e., mice bearing partially humanized immune systems. 100 μg of wild-type LST or variant F13 were mixed with complete Freund's adjuvant and injected subcutaneously into DR4 mice. Fourteen days later, antibody titers were measured by ELISA. Variant F13 yielded more than 200-fold lower antibody titers compared to wild-type LST. To assess the impact of antibody titers on antibacterial efficacy, the mice were challenged with an intraperitoneal injection of 2×10^8 MRSA strain USA400, and 1 hour later the mice were treated with 500 μg wild-type LST, variant F13, or PBS, administered as a single bolus intravenous injection. Both mice receiving PBS sham treatments died as did both mice treated with wild-type LST. In contrast, both mice treated with variant F13 survived. Thus, the reduced immunogenicity of F13 conferred enhanced therapeutic efficacy in vivo."}}, "data": [{"substance": "Wild-Type: wild-type lysostaphin (SEQ ID NO:49) produced in P. pastoris; aglycosylated Ser126Pro backbone in the design studies [reference compound]", "values": [{"measurement": "stimulation index", "setting": "pooled splenocytes", "result": 1.8, "unit": "fold"}, {"measurement": "MIC Strain 6445", "setting": "S. aureus 6445", "result": 0.03, "unit": "µg/mL"}, {"measurement": "survival", "setting": "MRSA strain USA400", "result": "died"}]}]}
